Assays:
[1] = test system: Ba/F3 tumors containing L2026M mutant Ros1; assay: Efficacy study in mice bearing Ba/F3-Ros1 tumors, L2026M mutant Ros1; type: in vivo, NMRI nude mice; conditions: oral gavage, 10 days
Protocol: (§1) Efficacy Studies in Mice Bearing Ba/F3-Ros1 Tumors
(§2) Approximately 2×10^6 Ba/F3 cells containing either wild-type, L2026M or G2032R mutant Ros1 were inoculated into the inguinal region of NMRI nude mice. When the resulting tumors reached a size of 250 to 350 mm^3, mice were randomly assigned to the different treatment groups (8 to 12 mice per group). Compounds formulated in 20% cyclodextrin were administered to the mice by oral gavage at various doses for 10-days once (QD) or twice (BID) a day. Tumor sizes were determined by caliper measurement on day 1 prior to treatment and then twice weekly for the duration of the study using the commonly following formula: tumor volume (mm^3)=(a×b^2/2); where ‘a’ represents the length, and ‘b’ the width of the tumor. Treatment/control (T/C) ratios were calculated at the end of the study based on the change in final relative tumor volumes.

[2] = test system: Ros pY2274 in HCC78 cells; assay: pROS1 immunofluorescence assay in HCC78 cells; type: cell-based; conditions: Homo sapiens, HCC78, 4 h, read-out: HCC78-pRos1 pIC50 (converted)
How it was run: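 HCC78 NSCLC cells treated with compound for 4 h at 37 °C, then fixed and immunostained for ROS1 pY2274 (Alexa Fluor 680, read at 700 nm). Total ROS1 stained in parallel (IRDye800cw, 800 nm) and used to normalize phospho signal.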

[3] = test system: Ba/F3 tumors containing G2032R mutant Ros1; assay: Efficacy study in mice bearing Ba/F3-Ros1 tumors, G2032R mutant Ros1; type: in vivo, NMRI nude mice; conditions: oral gavage, 10 days
Protocol: as §1, §2

[4] = biological target: Ba/F3 cells containing Ros1 with a mutation at the gatekeeper residue (L2026M) (Homo sapiens, UniProt P08922, L2026M, cells depend on it, form not given); assay: Ba/F3-Ros1 cell proliferation assay, L2026M gatekeeper mutant; type: cell-based, murine; conditions: without IL-3
How it was run: (§3)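 Compounds dispensed from 100% DMSO; Ba/F3 cells carrying one of three Ros1 forms added at 20000/well in RPMI-1640 with 10% FBS. Plates kept 24 h at 37 °C under 5% CO2. Alamar Blue added, 4 h further incubation, fluorescence measured at 540/590 nm.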

[5] = biological target: Ba/F3 cells containing Ros1 with G2032R mutation (Homo sapiens, UniProt P08922, G2032R, cells depend on it, form not given); assay: Ba/F3-Ros1 cell proliferation assay, G2032R crizotinib-resistance mutant; type: cell-based, murine; conditions: without IL-3
How it was run: as §3

[6] = test system: HCC78 non-small cell lung cancer cells; assay: HCC78 cell proliferation assay; type: cell-based; conditions: Homo sapiens, HCC78, 96 h, read-out: HCC-78 PROL pEC50 (converted)
How it was run: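 HCC78 NSCLC cells (~1000/well) in RPMI-1640 with 10% FBS were treated 24 h after seeding and exposed to compound for 4 days at 37 °C. Viability was read by MTT, with absorbance at 538 nm after DMSO/glycine solubilization.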

[7] = biological target: T1, Ba/F3 cells containing Ros1 wild-type protein (Homo sapiens, UniProt P08922, cells depend on it, form not given); assay: Ba/F3-Ros1 cell proliferation assay, wild-type Ros1; type: cell-based, murine; conditions: without IL-3
T1 construct: The background only speaks of 'a number of different unrelated proteins' and names SLC34A2-ROS1 for HCC78 cells
How it was run: as §3

[8] = test system: Ba/F3 cells containing Ros1 wild-type protein + IL-3; assay: Ba/F3-Ros1 cell proliferation counter-screen, wild-type protein in the presence of 10 ng/ml murine IL-3; type: cell-based; conditions: Mus musculus, BaF3, 24 h, read-out: BaF3-ROS1 + IL3 pIC50 (converted)
How it was run: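 Wild-type Ros1 Ba/F3 cells, cultured with 10 ng/ml murine IL-3, are exposed to compound for 24 h at 37 °C; Alamar Blue fluorescence after 4 h reports cell viability.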

Sequence of Ba/F3 cells containing Ros1 with G2032R mutation (P08922 whole entry G2032R, form open): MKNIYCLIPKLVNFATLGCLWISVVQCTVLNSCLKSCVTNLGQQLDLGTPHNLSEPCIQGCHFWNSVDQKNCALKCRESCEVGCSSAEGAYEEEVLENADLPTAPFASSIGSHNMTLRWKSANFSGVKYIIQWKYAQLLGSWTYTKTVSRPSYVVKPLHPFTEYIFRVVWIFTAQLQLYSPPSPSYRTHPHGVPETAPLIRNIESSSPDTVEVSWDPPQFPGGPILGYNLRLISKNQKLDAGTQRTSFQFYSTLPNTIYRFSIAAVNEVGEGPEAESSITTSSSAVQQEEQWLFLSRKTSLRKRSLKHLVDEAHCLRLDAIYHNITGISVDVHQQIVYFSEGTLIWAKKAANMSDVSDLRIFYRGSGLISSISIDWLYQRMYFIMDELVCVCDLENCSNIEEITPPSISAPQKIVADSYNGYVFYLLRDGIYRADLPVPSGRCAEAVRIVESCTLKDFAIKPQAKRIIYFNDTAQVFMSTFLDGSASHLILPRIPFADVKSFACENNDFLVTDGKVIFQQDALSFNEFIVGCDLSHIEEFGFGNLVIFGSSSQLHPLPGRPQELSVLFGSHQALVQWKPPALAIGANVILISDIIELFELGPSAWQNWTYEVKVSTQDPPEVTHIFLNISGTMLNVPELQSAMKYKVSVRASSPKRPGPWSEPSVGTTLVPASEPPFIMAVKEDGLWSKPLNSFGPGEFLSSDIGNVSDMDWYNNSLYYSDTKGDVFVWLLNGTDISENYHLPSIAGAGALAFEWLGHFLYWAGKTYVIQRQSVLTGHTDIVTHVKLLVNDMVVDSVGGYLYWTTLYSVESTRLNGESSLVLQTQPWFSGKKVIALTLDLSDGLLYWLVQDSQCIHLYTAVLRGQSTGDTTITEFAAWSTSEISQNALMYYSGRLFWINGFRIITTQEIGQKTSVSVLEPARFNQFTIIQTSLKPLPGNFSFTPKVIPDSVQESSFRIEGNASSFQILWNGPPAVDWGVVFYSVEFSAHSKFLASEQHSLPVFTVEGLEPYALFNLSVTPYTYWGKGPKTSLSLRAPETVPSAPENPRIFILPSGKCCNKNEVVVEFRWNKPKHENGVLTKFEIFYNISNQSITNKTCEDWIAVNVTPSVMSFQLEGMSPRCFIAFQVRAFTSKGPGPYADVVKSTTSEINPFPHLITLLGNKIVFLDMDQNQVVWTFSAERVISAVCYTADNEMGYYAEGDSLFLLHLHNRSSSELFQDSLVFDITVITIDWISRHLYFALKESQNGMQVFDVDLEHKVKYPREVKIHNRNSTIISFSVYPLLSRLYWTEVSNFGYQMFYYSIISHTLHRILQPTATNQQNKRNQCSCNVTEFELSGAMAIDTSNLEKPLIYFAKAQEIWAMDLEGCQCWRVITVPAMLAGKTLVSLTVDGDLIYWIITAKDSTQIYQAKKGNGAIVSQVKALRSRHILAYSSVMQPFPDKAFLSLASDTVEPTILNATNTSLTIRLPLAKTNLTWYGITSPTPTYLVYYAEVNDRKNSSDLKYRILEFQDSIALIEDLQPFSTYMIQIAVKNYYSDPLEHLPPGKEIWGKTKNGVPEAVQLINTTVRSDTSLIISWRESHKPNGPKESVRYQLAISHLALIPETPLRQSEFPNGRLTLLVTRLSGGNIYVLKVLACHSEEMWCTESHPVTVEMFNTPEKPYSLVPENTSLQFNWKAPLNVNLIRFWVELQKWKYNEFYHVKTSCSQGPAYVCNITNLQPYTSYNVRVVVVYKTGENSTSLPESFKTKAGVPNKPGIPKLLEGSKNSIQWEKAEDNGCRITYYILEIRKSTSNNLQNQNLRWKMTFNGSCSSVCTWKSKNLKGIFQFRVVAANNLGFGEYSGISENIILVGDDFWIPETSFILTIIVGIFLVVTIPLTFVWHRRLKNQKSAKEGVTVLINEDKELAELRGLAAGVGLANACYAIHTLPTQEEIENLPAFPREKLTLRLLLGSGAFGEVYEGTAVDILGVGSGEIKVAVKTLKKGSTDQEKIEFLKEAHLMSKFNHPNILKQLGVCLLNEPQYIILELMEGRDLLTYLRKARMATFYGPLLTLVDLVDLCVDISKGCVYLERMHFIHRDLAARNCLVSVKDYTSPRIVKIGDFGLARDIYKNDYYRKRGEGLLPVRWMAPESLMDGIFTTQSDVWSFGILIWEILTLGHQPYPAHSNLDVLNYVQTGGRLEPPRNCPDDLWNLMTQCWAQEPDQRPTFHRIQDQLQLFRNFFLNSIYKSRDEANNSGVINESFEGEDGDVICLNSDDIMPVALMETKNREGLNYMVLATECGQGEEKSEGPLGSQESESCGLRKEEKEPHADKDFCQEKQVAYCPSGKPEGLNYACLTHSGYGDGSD
Sequence of Ba/F3 cells containing Ros1 with a mutation at the gatekeeper residue (L2026M) (P08922 whole entry L2026M, form open): as the sequence (P08922 whole entry G2032R, form open) above, with L2026M, R2032G counted along it
T1 sequence (P08922 whole entry, stated change not applied): as the sequence (P08922 whole entry G2032R, form open) above, with R2032G counted along it

Structure (SMILES)	T/C (%) ([1]; 6.25 mg/kg BID)	T/C (%) ([1]; 12.5 mg/kg BID)	T/C (%) ([1]; 25 mg/kg QD)	IC50 [2] [nM]	T/C (%) ([3]; 6.25 mg/kg BID)	T/C (%) ([3]; 12.5 mg/kg BID)	T/C (%) ([3]; 25 mg/kg BID)	Ba/F3 Ros1 L2026M (-IL-3) pIC50 [4]	Ba/3 Ros1 G2032R (-IL-3) pIC50 [5]	EC50 [6] [nM]	BaF3-ROS1-IL3 pIC50 [7]	CC50 [8] [nM]	T/C (%) ([1]; 25 mg/kg BID)	T/C (%) ([1]; 50 mg/kg BID)	T/C (%) ([1]; 100 mg/kg BID)	T/C (%) ([3]; 50 mg/kg BID)	T/C (%) ([3]; 100 mg/kg BID)
CC(C)c1ccc(COc2ccc(-c3c(-c4ccncc4)nn4c3C(=O)NCC4)cc2)cc1 [Compound 1]	94	23	42	25.1	79	43	7	7.3	7.0	126	7.6	> 10000					
CC(C)c1ccc(COc2ccc(-c3c(-c4ccncc4)nn4c3C(=O)N(CCO)CC4)cc2)cc1 [Compound 2]		82		25.1		89	55	7.4	7.1	126	7.6	> 10000	50	28	−32	18	−16
